Reference: patent US20150293086A1, “LATERAL FLOW IMMUNOASSAY” (ABREOS BIOSCIENCES, INC., priority 2014, published 2015)

System: rituximab binding mimetope peptide
Assay: Peptide based ELISA: biotinylated mimetope peptides on streptavidin/neutravidin plates capture the antibody
Conditions: biotinylated peptide on coated plate, peroxidase labeled secondary anti-Fc antibody
Experimental: FIG. 2 (A) illustrates one embodiment of the lateral flow assay validating that rituximab binding mimetope peptide function in immunoassays and competes with the native antigen (CD20). FIG. 2 (A) is a standard curve for rituximab by peptide based ELISA. Biotinylated peptides are bound onto neutravidin coated ELISA plates. Rituximab is diluted in TBST. […] The solid line indicates the mean of the buffer control and the dashed line represents the mean +10 times the SD of the buffer control.
To confirm that a synthetic peptide captures the antibody, ELISAs were performed. Peptides biotinylated at the C-terminus were coated onto streptavidin coated plates and then incubated with a dilution serious of antibody. Binding was detected via a peroxidase labeled secondary anti-Fc antibody. Specificity was confirmed by lack of signal from either total Ig or using a different antibody. […] The antibody was fluorescently labeled and the cell staining evaluated with or without a molar excess of the presumed mimetope as well as control peptides. […]
FIG. 2 illustrates one embodiment of the lateral flow assay validating that rituximab binding mimetope peptide function in immunoassays and competes with the native antigen (CD20). […] Fluorescently labeled rituximab was incubated with primary CLL cells and evaluated by flow cytometry (solid line). […]

sensitivity of peptide ELISA for the antibody: 4 µg/mL
Substance: rituximab: monoclonal antibody; native antigen CD20
